One molecule from paper PMC6001834 (Drug Design, Development and Therapy, 2018) can be followed below.

The test system of the test is AMI rats. The test is described as follows: In vivo effects of LNCs on infarct size. Also noted: species or system Sprague-Dawley rats. The conditions noted are these: intravenous injection, n=8, AMI group 58%.

As for `Nc1ncnc2c1ncn2[C@@H]1O[C@H](CO)[C@@H](O)[C@H]1O` [free Ade, Adenosine], the “infarct size (percentage of whole size of the left ventricle)” value came to 47%.
